We go through 21 compounds from patent publication US20250186437A1, “CARBOLINE COMPOUNDS AND USE THEREOF” (PTC Therapeutics, Inc., priority 2021, published 2025).

SMILES strings stand for the structures.

The test system of this experiment is MOLM-13 cells. As to the kind of experiment: MOLM-13 Cell Proliferation Assay (indicator of DHODH inhibition). It counts as cell-based. The note with it: Homo sapiens, 72 Hours of culture, CellTiter-Glo, no uridine. As for the experimental part: The following assay was conducted to measure proliferation of MOLM-13 cells in the presence of each compound studied. This assay was included as an indicator of DHODH inhibition, as growth of MOLM-13 cells is known to depend on synthesis of pyrimidines using the de novo pathway, which can be blocked by inhibition of DHODH. • 1. MOLM-13 cells were cultured in RPMI 1640 medium+10% Fetal Bovine Serum (FBS). Only low passage cells (<20) were used for the compound tests • 2. On day 1, Log-phase growing Molm-13 Cells were counted and diluted to 10^5 cells/mL in RPMI 1640 medium+10% FBS • 3. 100 μL of diluted MOLM-13 cells in 96 well white plates were seeded, for a final density of 10^4 cells/well. • 4. 0.5 μL of pre-diluted 200× compounds or DMSO control was added to each well. The final DMSO concentration was 0.5%. • 5. After 72 Hours of culture at 37° C., 5% CO2, the plates were taken out and cooled to RT, then 50 μL CellTiter-Glo® (Promega) was added, and the composition was mixed at RT for 10 minutes. • 6. The plates were then read by ViewLux (Speed-fast, Gain-High, Bining-1X, 5 seconds).

For the compound `FC(F)(F)c1ccnc(N2CCc3c([nH]c4ccc(Cl)cc34)C2c2ccc(Cl)nc2Cl)n1` (stereo not drawn) [Compound 319, 6-chloro-1-(2,6-dichloropyridin-3-yl)-2-[4-(trifluoromethyl)pyrimidin-2-yl]-2,3,4,9-tetrahydro-1H-pyrido[3,4-b]indole], half-maximal inhibition (IC50) required 82.1 nM.

`CN1CCN(c2ccc(C3c4[nH]c5ccc(-n6nccn6)cc5c4CCN3c3nccc(C(F)(F)F)n3)cn2)CC1` (stereo not drawn) [Compound 513, 1-[6-(4-methylpiperazin-1-yl)pyridin-3-yl]-6-(2H-1,2,3-triazol-2-yl)-2-[4-(trifluoromethyl)pyrimidin-2-yl]-2,3,4,9-tetrahydro-1H-pyrido[3,4-b]indole] displayed an IC50 of 11.2 nM.

The compound `FC(F)c1nc(N2CCc3c([nH]c4ccc(Cl)cc34)[C@@H]2c2cnc(N3CCOCC3)nc2)nc(C(F)(F)F)n1` [Compound 507, (1S)-6-chloro-2-[4-(difluoromethyl)-6-(trifluoromethyl)-1,3,5-triazin-2-yl]-1-[2-(morpholin-4-yl)pyrimidin-5-yl]-2,3,4,9-tetrahydro-1H-pyrido[3,4-b]indole] gave a half-inhibitory concentration (IC50) of 0.6 nM.

On to `Fc1ccc(C2c3[nH]c4cc(F)c(Cl)cc4c3CCN2c2ncc(Cl)cn2)cc1` (stereo not drawn) [Compound 4, 6-chloro-2-(5-chloropyrimidin-2-yl)-7-fluoro-1-(4-fluorophenyl)-2,3,4,9-tetrahydro-1H-pyrido[3,4-b]indole], for which the 50% inhibitory concentration (IC50) is 59.7 nM.

In the case of `CCCCOC(=O)c1ccnc(N2CCc3c([nH]c4ccc(Cl)cc34)C2c2ccc(C)cc2)n1` (stereo not drawn) [Compound 280, butyl 2-[6-chloro-1-(4-methylphenyl)-1,3,4,9-tetrahydro-2H-pyrido[3,4-b]indol-2-yl]pyrimidine-4-carboxylate], the 50% inhibitory concentration (IC50) was determined as 4.1 nM.

Regarding `FC(F)(F)c1ccnc(N2CCc3c([nH]c4ccc(Cl)cc34)C2c2ccc(N3C[C@H]4C[C@@H]3CO4)nc2)n1` (stereo partly drawn) [Compound 373, 6-chloro-1-{6-[(1R,4R)-2-oxa-5-azabicyclo[2.2.1]heptan-5-yl]pyridin-3-yl}-2-[4-(trifluoromethyl)pyrimidin-2-yl]-2,3,4,9-tetrahydro-1H-pyrido[3,4-b]indole], the IC50 came to 4.6 nM.

In turn, `Fc1c(C2c3[nH]c4ccc(Cl)cc4c3CCN2c2nccc(C(F)(F)F)n2)ccc(N2CCOCC2)c1F` (stereo not drawn) [Compound 279, 6-chloro-1-[2,3-difluoro-4-(morpholin-4-yl)phenyl]-2-[4-(trifluoromethyl)pyrimidin-2-yl]-2,3,4,9-tetrahydro-1H-pyrido[3,4-b]indole] displayed an IC50 of 5.1 nM.

Compound `O=C(O)CCCNc1ncc([C@H]2c3[nH]c4ccc(Cl)cc4c3CCN2c2nc(C(F)(F)F)nc(C(F)(F)F)n2)cn1` [Compound 538, 4-[(5-{(1S)-2-[4,6-bis(trifluoromethyl)-1,3,5-triazin-2-yl]-6-chloro-2,3,4,9-tetrahydro-1H-pyrido[3,4-b]indol-1-yl}pyrimidin-2-yl)amino]butanoic acid] yielded an IC50 of 0.4 nM.

Compound `Fc1cc(-n2ccnc2)ccc1C1c2[nH]c3ccc(Cl)cc3c2CCN1c1nccc(C(F)(F)F)n1` (stereo not drawn) [Compound 275, 6-chloro-1-[2-fluoro-4-(1H-imidazol-1-yl)phenyl]-2-[4-(trifluoromethyl)pyrimidin-2-yl]-2,3,4,9-tetrahydro-1H-pyrido[3,4-b]indole] gave an IC50 of 7.3 nM.

`Cc1ncc(C2c3[nH]c4cc(F)c(Cl)cc4c3CCN2c2nccc(C(F)(F)F)n2)cn1` (stereo not drawn) [Compound 92, 6-chloro-7-fluoro-1-(2-methylpyrimidin-5-yl)-2-[4-(trifluoromethyl)pyrimidin-2-yl]-2,3,4,9-tetrahydro-1H-pyrido[3,4-b]indole] gave a 50% inhibitory concentration (IC50) of 34.6 nM.

As for `Cc1ccc(C2c3[nH]c4ccc(Cl)cc4c3CCN2c2nccc(N(C)C)n2)cc1` (stereo not drawn) [Compound 307, 2-[6-chloro-1-(4-methylphenyl)-1,3,4,9-tetrahydro-2H-pyrido[3,4-b]indol-2-yl]-N,N-dimethylpyrimidin-4-amine], the half-inhibitory concentration (IC50) came out at 99.2 nM.

In turn, `Cc1ccc(C2c3[nH]c4cc(F)c(Cl)cc4c3CCN2c2nccc(C(F)(F)F)n2)c(F)c1F` (stereo not drawn) [Compound 140, 6-chloro-1-(2,3-difluoro-4-methylphenyl)-7-fluoro-2-[4-(trifluoromethyl)pyrimidin-2-yl]-2,3,4,9-tetrahydro-1H-pyrido[3,4-b]indole] gave an IC50 of 1 nM.

In the case of `N#Cc1cc(C(F)(F)F)nc(N2CCc3c([nH]c4ccc(Cl)cc34)[C@@H]2c2cnc(N3CCOCC3)nc2)n1` [Compound 434, 2-{(1S)-6-chloro-1-[2-(morpholin-4-yl)pyrimidin-5-yl]-1,3,4,9-tetrahydro-2H-pyrido[3,4-b]indol-2-yl}-6-(trifluoromethyl)pyrimidine-4-carbonitrile], the IC50 was 1.2 nM.

In turn, `N#Cc1nc(N2CCc3c([nH]c4ccc(Cl)cc34)[C@@H]2c2cnc(N3CCOCC3)nc2)ncc1F` [Compound 396, 2-{(1S)-6-chloro-1-[2-(morpholin-4-yl)pyrimidin-5-yl]-1,3,4,9-tetrahydro-2H-pyrido[3,4-b]indol-2-yl}-5-fluoropyrimidine-4-carbonitrile] returned an IC50 of 2.4 nM.

Consider `N#Cc1cc(C(F)(F)F)nc(N2CCc3c([nH]c4ccc(Cl)cc34)[C@@H]2c2ccc(N3CCOCC3)nc2)n1` [Compound 433, 2-{(1S)-6-chloro-1-[6-(morpholin-4-yl)pyridin-3-yl]-1,3,4,9-tetrahydro-2H-pyrido[3,4-b]indol-2-yl}-6-(trifluoromethyl)pyrimidine-4-carbonitrile], for which half-maximal inhibition (IC50) required 1.1 nM.

With `Oc1cc(Cl)ccc1C1c2[nH]c3ccc(Cl)cc3c2CCN1c1ncc(F)cn1` (stereo not drawn) [Compound 221, 5-chloro-2-[6-chloro-2-(5-fluoropyrimidin-2-yl)-2,3,4,9-tetrahydro-1H-pyrido[3,4-b]indol-1-yl]phenol], the 50% inhibitory concentration (IC50) was found to be 4.2 nM.

In turn, `Fc1ccc(C2c3[nH]c4ccc(Cl)cc4c3CCN2c2nccc(C(F)(F)F)n2)c(F)c1` (stereo not drawn) [Compound 423, 6-chloro-1-(2,4-difluorophenyl)-2-[4-(trifluoromethyl)pyrimidin-2-yl]-2,3,4,9-tetrahydro-1H-pyrido[3,4-b]indole] had a 50% inhibitory concentration (IC50) of 6.1 nM.

Compound `Cc1ccc(C2c3[nH]c4ccc(Cl)cc4c3CCN2c2nccc(C#N)n2)cc1` (stereo not drawn) [Compound 378, 2-[6-chloro-1-(4-methylphenyl)-1,3,4,9-tetrahydro-2H-pyrido[3,4-b]indol-2-yl]pyrimidine-4-carbonitrile] came in with a concentration for half-maximal inhibition (IC50) of 7 nM.

The compound `Cc1ccc(C2c3[nH]c4ccc(Cl)cc4c3CCN2c2nccc(C(F)(F)F)n2)cc1O` (stereo not drawn) [Compound 258, 5-{6-chloro-2-[4-(trifluoromethyl)pyrimidin-2-yl]-2,3,4,9-tetrahydro-1H-pyrido[3,4-b]indol-1-yl}-2-methylphenol] gave an IC50 of 28.3 nM.

For the compound `Fc1c(Cl)ccc2[nH]c3c(c12)CCN(c1nccc(C(F)(F)F)n1)[C@H]3c1ccc(Cl)cc1` [Compound 182, (1S)-6-chloro-1-(4-chlorophenyl)-5-fluoro-2-[4-(trifluoromethyl)pyrimidin-2-yl]-2,3,4,9-tetrahydro-1H-pyrido[3,4-b]indole], half-maximal inhibition (IC50) required 1.3 nM.

For `Cc1ccc(C2c3[nH]c4cc(F)c(Cl)cc4c3CCN2c2nccc(Cl)n2)cc1` (stereo not drawn) [Compound 43, 6-chloro-2-(4-chloropyrimidin-2-yl)-7-fluoro-1-(4-methylphenyl)-2,3,4,9-tetrahydro-1H-pyrido[3,4-b]indole], 6 nM corresponded to half-maximal inhibition (IC50).

By IC50 is commonly meant the concentration that gives 50% inhibition. High values mean weaker potency in that assay, low ones greater potency in that assay.
